Measurements taken from PubChem BioAssay AID2060338 (Molecular Pharmacology Branch, DTP, NCI, 2025).
“And” between values parts separate entries of the source, which are not always exact repeats. Equal values may be shown once.

System: 556581-035-R-J1-PDC spheroids with HUVEC/MSC, viability
Experiment: Anticancer human tumor 556581-035-R-J1-PDC patient-derived ovarian carcinoma cell line growth inhibition [IpAb]
Settings: for viability, T/C: stronger effect = lower value
Procedure, shortened: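 Combinations with ipatasertib or abemaciclib were tested on tumour spheroids holding HUVEC (25%) and MSC (15%) alongside 60% malignant cells. Top concentration was at or near clinical Cmax (10 microM if undefined), descending in half-log steps.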

[1] = curve of first compound, second compound 0.1 µM
[2] = curve of first compound, second compound 0.316 µM
[3] = curve of first compound, second compound 1 µM
[4] = curve of first compound, second compound 3.16 µM
[5] = curve of first compound, second compound 10 µM
[6] = second compound 0.1 µM, first compound 0.0316 µM
[7] = second compound 0.1 µM, first compound 0.1 µM
[8] = second compound 0.1 µM, first compound 0.316 µM
[9] = second compound 0.1 µM, first compound 1 µM
[10] = second compound 0.1 µM, first compound 3.16 µM
[11] = second compound 0.1 µM, first compound 10 µM
[12] = second compound 0.316 µM, first compound 0.0316 µM
[13] = second compound 0.316 µM, first compound 0.1 µM
[14] = second compound 0.316 µM, first compound 0.316 µM
[15] = second compound 0.316 µM, first compound 1 µM
[16] = second compound 0.316 µM, first compound 3.16 µM
[17] = second compound 0.316 µM, first compound 10 µM
[18] = second compound 1 µM, first compound 0.0316 µM
[19] = second compound 1 µM, first compound 0.1 µM
[20] = second compound 1 µM, first compound 0.316 µM
[21] = second compound 1 µM, first compound 1 µM
[22] = second compound 1 µM, first compound 3.16 µM
[23] = second compound 1 µM, first compound 10 µM
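Note: spheroids exposed to compounds for 7 days before readout.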

Cn1nccc1Nc1nccc(-c2ccn(C(CO)c3ccc(Cl)c(F)c3)c(=O)c2)n1 (stereo unspecified) + CC(C)NCC(C(=O)N1CCN(c2ncnc3c2C(C)CC3O)CC1)c1ccc(Cl)cc1
IC50 [1]: 2480 nM
IC50 [2]: 2330 nM
IC50 [3]: 165 nM
IC50 [4]: < 31.6 nM
IC50 [5]: < 31.6 nM
viability, T/C [6]: 94.8%
viability, T/C [7]: 75.4%
viability, T/C [8]: 71.8%
viability, T/C [9]: 62.4%
viability, T/C [10]: 50.2%
viability, T/C [11]: 31.3%
viability, T/C [12]: 61.6%
viability, T/C [13]: 79.6%
viability, T/C [14]: 60.1%
viability, T/C [15]: 51.5%
viability, T/C [16]: 52.2%
viability, T/C [17]: 13.2%
viability, T/C [18]: 55.8%
viability, T/C [19]: 61.6%
viability, T/C [20]: 41%
viability, T/C [21]: 29.3%
viability, T/C [22]: 24.8%
viability, T/C [23]: 9.12%
viability, T/C (second compound 3.16 µM, first compound 0.0316 µM): 48.4%
viability, T/C (second compound 3.16 µM, first compound 0.1 µM): 36.4%
viability, T/C (second compound 3.16 µM, first compound 0.316 µM): 38.1%
viability, T/C (second compound 3.16 µM, first compound 1 µM): 22.7%
viability, T/C (second compound 3.16 µM, first compound 3.16 µM): 11.6%
viability, T/C (second compound 3.16 µM, first compound 10 µM): 5.62%
viability, T/C (second compound 10 µM, first compound 0.0316 µM): 35.7%
viability, T/C (second compound 10 µM, first compound 0.1 µM): 31.3%
viability, T/C (second compound 10 µM, first compound 0.316 µM): 27.8%
viability, T/C (second compound 10 µM, first compound 1 µM): 17.6%
viability, T/C (second compound 10 µM, first compound 3.16 µM): 12.3%
viability, T/C (second compound 10 µM, first compound 10 µM): 1.97%

CC(C)NCC(C(=O)N1CCN(c2ncnc3c2C(C)CC3O)CC1)c1ccc(Cl)cc1 (stereo unspecified)
viability, T/C (compound 3.16 µM): 49% [middle of 13 runs]
viability, T/C (compound 10 µM): 45.5% [middle of 12 runs]

Cc1nc(NC(=O)N2CCCC2C(N)=O)sc1-c1ccnc(C(C)(C)C(F)(F)F)c1 (stereo unspecified) + CCN1CCN(Cc2ccc(Nc3ncc(F)c(-c4cc(F)c5nc(C)n(C(C)C)c5c4)n3)nc2)CC1
IC50 (curve of first compound, second compound 0.01 µM): 388 nM
IC50 (curve of first compound, second compound 0.0316 µM): 274 nM
IC50 [1]: 401 nM
IC50 [2]: < 31.6 nM
IC50 [3]: < 31.6 nM
viability, T/C (second compound 0.01 µM, first compound 0.0316 µM): 87.3%
viability, T/C (second compound 0.01 µM, first compound 0.1 µM): 65.6%
viability, T/C (second compound 0.01 µM, first compound 0.316 µM): 47.3%
viability, T/C (second compound 0.01 µM, first compound 1 µM): 39.6%
viability, T/C (second compound 0.01 µM, first compound 3.16 µM): 33.2%
viability, T/C (second compound 0.01 µM, first compound 10 µM): 10.3%
viability, T/C (second compound 0.0316 µM, first compound 0.0316 µM): 70.4%
viability, T/C (second compound 0.0316 µM, first compound 0.1 µM): 58.8%
viability, T/C (second compound 0.0316 µM, first compound 0.316 µM): 42.9%
viability, T/C (second compound 0.0316 µM, first compound 1 µM): 42%
viability, T/C (second compound 0.0316 µM, first compound 3.16 µM): 27.5%
viability, T/C (second compound 0.0316 µM, first compound 10 µM): 9.58%
viability, T/C [6]: 67.8%
viability, T/C [7]: 62%
viability, T/C [8]: 52.7%
viability, T/C [9]: 39.5%
viability, T/C [10]: 25.2%
viability, T/C [11]: 7.2%
viability, T/C [12]: 46.7%
viability, T/C [13]: 47.9%
viability, T/C [14]: 40.8%
viability, T/C [15]: 36.7%
viability, T/C [16]: 31.2%
viability, T/C [17]: 11.3%
viability, T/C [18]: 48.9%
viability, T/C [19]: 37.9%
viability, T/C [20]: 39%
viability, T/C [21]: 30.2%
viability, T/C [22]: 20.2%
viability, T/C [23]: 9%

Cn1cnc2c(F)c(Nc3ccc(Br)cc3Cl)c(C(=O)NOCCO)cc21 + CC(C)NCC(C(=O)N1CCN(c2ncnc3c2C(C)CC3O)CC1)c1ccc(Cl)cc1
IC50 [1]: 473 nM
IC50 [2]: 218 nM
IC50 [3]: 55.3 nM
IC50 [4]: < 9.49 nM
IC50 [5]: < 9.49 nM
viability, T/C (second compound 0.1 µM, first compound 0.00949 µM): 91.4%
viability, T/C (second compound 0.1 µM, first compound 0.03 µM): 89.3%
viability, T/C (second compound 0.1 µM, first compound 0.0949 µM): 81.6%
viability, T/C (second compound 0.1 µM, first compound 0.3 µM): 55.5%
viability, T/C (second compound 0.1 µM, first compound 0.949 µM): 38.1%
viability, T/C (second compound 0.1 µM, first compound 3 µM): 14.7%
viability, T/C (second compound 0.316 µM, first compound 0.00949 µM): 69.1%
viability, T/C (second compound 0.316 µM, first compound 0.03 µM): 60.5%
viability, T/C (second compound 0.316 µM, first compound 0.0949 µM): 61%
viability, T/C (second compound 0.316 µM, first compound 0.3 µM): 46.4%
viability, T/C (second compound 0.316 µM, first compound 0.949 µM): 28.6%
viability, T/C (second compound 0.316 µM, first compound 3 µM): 14.2%
viability, T/C (second compound 1 µM, first compound 0.00949 µM): 59.7%
viability, T/C (second compound 1 µM, first compound 0.03 µM): 55.6%
viability, T/C (second compound 1 µM, first compound 0.0949 µM): 46.1%
viability, T/C (second compound 1 µM, first compound 0.3 µM): 31.7%
viability, T/C (second compound 1 µM, first compound 0.949 µM): 20.4%
viability, T/C (second compound 1 µM, first compound 3 µM): 7.02%
viability, T/C (second compound 3.16 µM, first compound 0.00949 µM): 45.9%
viability, T/C (second compound 3.16 µM, first compound 0.03 µM): 40.7%
viability, T/C (second compound 3.16 µM, first compound 0.0949 µM): 33.9%
viability, T/C (second compound 3.16 µM, first compound 0.3 µM): 25%
viability, T/C (second compound 3.16 µM, first compound 0.949 µM): 15.4%
viability, T/C (second compound 3.16 µM, first compound 3 µM): 6.95%
viability, T/C (second compound 10 µM, first compound 0.00949 µM): 37.3%
viability, T/C (second compound 10 µM, first compound 0.03 µM): 38.6%
viability, T/C (second compound 10 µM, first compound 0.0949 µM): 29.6%
viability, T/C (second compound 10 µM, first compound 0.3 µM): 21.2%
viability, T/C (second compound 10 µM, first compound 0.949 µM): 13.8%
viability, T/C (second compound 10 µM, first compound 3 µM): 3.58%

COc1c(OCCCN2CCOCC2)ccc2c3n(c(=NC(=O)c4cnc(N)nc4)nc12)CCN3
viability, T/C (compound 0.00316 µM): 72.5% and 103%
viability, T/C (compound 0.01 µM): 52.7% and 57.6%
viability, T/C (compound 0.0316 µM): 41.7% and 46.2%
viability, T/C (compound 0.1 µM): 32.3% and 38.2%
viability, T/C (compound 0.316 µM): 11% and 11.5%
viability, T/C (compound 1 µM): 2.47% and 3.86%
IC50 (curve of compound): 16.3 nM and 24.4 nM

C=CCn1c(=O)c2cnc(Nc3ccc(N4CCN(C)CC4)cc3)nc2n1-c1cccc(C(C)(C)O)n1
viability, T/C (compound 0.0316 µM): 102% and 109%
viability, T/C (compound 0.1 µM): 72.1% and 83.2%
viability, T/C (compound 0.316 µM): 28.2% and 29.8%
viability, T/C (compound 1 µM): 39.7% and 41.9%
viability, T/C (compound 3.16 µM): 50.2% and 42%
viability, T/C (compound 10 µM): 36.3% and 35.7%
IC50 (curve of compound): 214 nM and 230 nM
